In US20180320217A1, “METHODS FOR SAMPLING AND MEASURING ORAL LAVAGE PROTEINS” (The Procter & Gamble Company, priority 2017, published 2018):
“And” between values parts separate entries of the source, which are not always exact repeats. Equal values may be shown once.

Experiments:
[1] = test system: oral lavage; test: Formation of formazan dyes: oral lavage, malate and 1-Methoxy PMS (TABLE 20); format: biochemical, human
[2] = Formation of formazan dyes: control buffer and 1-Methoxy PMS, absence of malate (TABLE 21); format: biochemical
[3] = test system: diaphorase; test: Formation of formazan dyes: NADH and diaphorase, absence of malate (TABLE 7); format: biochemical, Clostridium kluyveri
[4] = test system: oral lavage; test: Formation of formazan dyes: oral lavage, malate and diaphorase (TABLE 12); format: biochemical, human
[5] = target: T1, Malate dehydrogenase (Sus scrofa, UniProt P00346); test: Formation of formazan dyes: Malate dehydrogenase and 1-Methoxy PMS, absence of malate (TABLE 17); format: biochemical, pig heart; design: L-malate dehydrogenase (pig heart); purchased Sigma-Aldrich 10127248001 / 10127914001
T1 sequence (P00346 25-338): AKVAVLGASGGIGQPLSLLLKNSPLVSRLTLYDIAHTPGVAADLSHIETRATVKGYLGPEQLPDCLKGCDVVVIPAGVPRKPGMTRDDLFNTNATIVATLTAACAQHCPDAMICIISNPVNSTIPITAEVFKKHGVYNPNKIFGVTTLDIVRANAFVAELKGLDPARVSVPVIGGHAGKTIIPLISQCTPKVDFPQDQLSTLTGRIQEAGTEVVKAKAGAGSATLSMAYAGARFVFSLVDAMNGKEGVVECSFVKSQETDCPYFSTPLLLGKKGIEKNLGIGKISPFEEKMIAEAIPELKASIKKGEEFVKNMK

[6] = test system: diaphorase; test: Formation of formazan dyes: NADH, diaphorase and malate (TABLE 8); format: biochemical, Clostridium kluyveri
[7] = test system: Malate dehydrogenase and diaphorase; test: Formation of formazan dyes: Malate dehydrogenase and diaphorase, absence of malate (TABLE 9); format: biochemical, pig heart
[8] = Formation of formazan dyes: NADH and 1-methoxy PMS, absence of malate (TABLE 15); format: biochemical
[9] = Formation of formazan dyes: control buffer, malate and 1-Methoxy PMS (TABLE 22); format: biochemical
[10] = test system: oral lavage; test: Formation of formazan dyes: oral lavage and 1-Methoxy PMS, absence of malate (TABLE 19); format: biochemical, human
[11] = test system: oral lavage; test: Formation of formazan dyes: oral lavage and diaphorase, not malate (TABLE 11); format: biochemical, human
[12] = test system: Malate dehydrogenase and diaphorase; test: Formation of formazan dyes: Malate dehydrogenase, diaphorase and malate (TABLE 10); format: biochemical, pig heart

Structure (SMILES): COc1cc(-c2ccc(-n3nc(-c4ccccc4)n[n+]3-c3ccc([N+](=O)[O-])cc3)c(OC)c2)ccc1-n1nc(-c2ccccc2)n[n+]1-c1ccc([N+](=O)[O-])cc1 [Nitro-TB, 3,3′-[3,3′-Dimethoxy-(1,1′-biphenyl)-4,4′-diyl]-bis[2-(4-nitrophenyl)-5-phenyl-2H-tetrazolium chloride]
- Absorbance, formation of formazan dyes (Means) [1]: 0.35 and 0.37 and 0.40 and 0.43 and 0.29 and 0.30 and 0.31
- Absorbance, formation of formazan dyes (Means) [2]: 0.33 and 0.41 and 0.42 and 0.44 and 0.39 and 0.45 and 0.43
- Formation of formazan dyes, absorbance, Means 0 h [3]: 1.49
- Formation of formazan dyes, absorbance, Means 1 h [3]: 1.71
- Formation of formazan dyes, absorbance, Means 2 h [3]: 1.73
- Formation of formazan dyes, absorbance, Means 3 h [3]: 1.71
- Formation of formazan dyes, absorbance, Means 4 h [3]: 1.74
- Formation of formazan dyes, absorbance, Means 6 h [3]: 1.86
- Formation of formazan dyes, absorbance, Means 8 h [3]: 1.83
- Formation of formazan dyes, absorbance, Means 10 h [3]: 1.85
- Formation of formazan dyes, absorbance, Means 12 h [3]: 1.82
- Formation of formazan dyes, absorbance, Means 0 h [4]: 0.52
- Formation of formazan dyes, absorbance, Means 1 h [4]: 0.75
- Formation of formazan dyes, absorbance, Means 2 h [4]: 0.80
- Formation of formazan dyes, absorbance, Means 3 h [4]: 0.75
- Formation of formazan dyes, absorbance, Means 4 h [4]: 0.88
- Formation of formazan dyes, absorbance, Means 6 h [4]: 1.00
- Formation of formazan dyes, absorbance, Means 8 h [4]: 1.09
- Formation of formazan dyes, absorbance, Means 10 h [4]: 1.20
- Formation of formazan dyes, absorbance, Means 12 h [4]: 1.30
- Absorbance, formation of formazan dyes (Means) [5]: 0.31 and 0.40 and 0.39 and 0.35 and 0.36 and 0.32 and 0.41
- Formation of formazan dyes, absorbance, Means 0 h [6]: 1.03
- Formation of formazan dyes, absorbance, Means 1 h [6]: 1.15
- Formation of formazan dyes, absorbance, Means 2 h [6]: 1.16
- Formation of formazan dyes, absorbance, Means 3 h [6]: 1.17
- Formation of formazan dyes, absorbance, Means 4 h [6]: 1.22
- Formation of formazan dyes, absorbance, Means 6 h [6]: 1.27
- Formation of formazan dyes, absorbance, Means 8 h [6]: 1.33
- Formation of formazan dyes, absorbance, Means 10 h [6]: 1.37
- Formation of formazan dyes, absorbance, Means 12 h [6]: 1.42
- Formation of formazan dyes, absorbance, Means 0 h [7]: 0.15
- Formation of formazan dyes, absorbance, Means 1 h [7]: 0.20
- Formation of formazan dyes, absorbance, Means 2 h [7]: 0.23
- Formation of formazan dyes, absorbance, Means 3 h [7]: 0.25
- Formation of formazan dyes, absorbance, Means 4 h [7]: 0.36
- Formation of formazan dyes, absorbance, Means 6 h [7]: 0.39
- Formation of formazan dyes, absorbance, Means 8 h [7]: 0.40
- Formation of formazan dyes, absorbance, Means 10 h [7]: 0.41
- Formation of formazan dyes, absorbance, Means 12 h [7]: 0.42
- reduction of tetrazolium dye in the absence of substrate malate [7]: remained largely in oxidized forms
- formation of formazan dyes / precipitates with 1-methoxy PMS and NADH [8]: formed precipitates
- Means absorbance 0 h [9]: 0.16
- Means absorbance 1 h [9]: 0.16
- Means absorbance 2 h [9]: 0.17
- Means absorbance 3 h [9]: 0.19
- Means absorbance 4 h [9]: 0.19
- Means absorbance 6 h [9]: 0.24
- Means absorbance 8 h [9]: 0.29
- Means absorbance 10 h [9]: 0.18
- Means absorbance 12 h [9]: 0.23
- Absorbance, formation of formazan dyes (Means) [10]: 0.52 and 0.58 and 0.61 and 0.63 and 0.60 and 0.68 and 0.73 and 0.82
- Formation of formazan dyes, absorbance, Means 0 h [11]: 0.56
- Formation of formazan dyes, absorbance, Means 1 h [11]: 0.79
- Formation of formazan dyes, absorbance, Means 2 h [11]: 0.85
- Formation of formazan dyes, absorbance, Means 3 h [11]: 0.81
- Formation of formazan dyes, absorbance, Means 4 h [11]: 0.88
- Formation of formazan dyes, absorbance, Means 6 h [11]: 0.87
- Formation of formazan dyes, absorbance, Means 8 h [11]: 0.88
- Formation of formazan dyes, absorbance, Means 10 h [11]: 0.86
- Formation of formazan dyes, absorbance, Means 12 h [11]: 0.87
- reduction to formazan dyes by pooled oral lavage [11]: changed to formazan dyes in a significant amount
- Formation of formazan dyes, absorbance, Means 0 h [12]: 0.56
- Formation of formazan dyes, absorbance, Means 1 h [12]: 0.88
- Formation of formazan dyes, absorbance, Means 2 h [12]: 1.08
- Formation of formazan dyes, absorbance, Means 3 h [12]: 1.23
- Formation of formazan dyes, absorbance, Means 4 h [12]: 1.46
- Formation of formazan dyes, absorbance, Means 6 h [12]: 1.73
- Formation of formazan dyes, absorbance, Means 8 h [12]: 1.95
- Formation of formazan dyes, absorbance, Means 10 h [12]: 2.16
- Formation of formazan dyes, absorbance, Means 12 h [12]: 2.35
- conversion to reduced formazan dyes [12]: converted to reduced formazan dyes in a time-dependent manner
